# Assay results reported in patent US20260007597A1, “COMPOSITIONS AND METHODS FOR TREATMENT OF VIRUS-INDUCED AIRWAY FIBROSIS” (priority 2022, published 2026).
# “Also recorded” adds a separate entry of the source.
# How the values were obtained:
# [1] = system: pSARS-2 infected NHBE cells (infection-induced cell surface shedding of profibrotic enzymes); type: cell-based, human
# [2] = system: Wuhan pSARS infected NHBE supernatants; type: cell-based, human
# [3] = system: SARS-COV-2 pseudovirus (pSARS-2) infected NHBE cells; type: cell-based, human; details: inhibitor added during clotting assay (5 U/ml hirudin, 5 μM dabigatran, 5 μM argatroban), turbidity 350 nm / confocal
# [4] = system: replication competent SARS-COV-2 infected NHBE cells; type: cell-based, human; details: WA-1, beta and delta strains
# [5] = target: thrombin (Homo sapiens, UniProt P00734); type: biochemical; details: thrombin ~0.2 U/ml; stoichiometric concentration of hirudin
Compound,"fibrin clot formation, inhibitor present during the viral infection [1]","fibrin clotting step, inhibitor added post-infection [2]",infection-induced fibrin clot formation [3],fibrin clotting induced by replication competent SARS-CoV-2 infection of NHBE cells [4],thrombin induced fibrin clotting [5]
"CNC(=O)[C@H](Cc1ccccc1)NC(=O)[C@H](CC(C)C)[C@H](CSc1cccs1)C(=O)NO [BB-94, batimastat]",significantly reduced; also recorded: inhibited; also recorded: reduced fibrin clot formation,did not inhibit,–,–,–
CC1CNc2c(cccc2S(=O)(=O)N[C@@H](CCCNC(=N)N)C(=O)N2CC[C@@H](C)C[C@@H]2C(=O)O)C1 (stereo partly shown) [argatroban],–,–,inhibited,–,–
CC1(C)SCCN(S(=O)(=O)c2ccc(Oc3ccncc3)cc2)[C@H]1C(=O)NO [prinomastat],significantly reduced; also recorded: inhibited,–,–,–,–
hirudin,–,–,completely suppressed,inhibited,inhibition
